In patent publication US11400106B2, “Methods for inhibiting microbe growth” (priority 2018, dated 2022):
Values after ≈ are worked out from the molar mass of the structure shown. Where two headings read alike, the source gives them in different places. Blank lines part the entries; values can stand above or below the compound they belong to.

Experiments:
[1] = test system: methicillin-resistant Staphylococcus aureus (MRSA); assay: Susceptibility testing of MRSA clinical isolates (n=100); format: cell-based; settings: for MIC50 / MIC90 / MIC: Staphylococcus aureus, MRSA
Description: (§1) This study included one hundred (n=100) clinical isolates of methicillin-resistant Staphylococcus aureus (MRSA) and ninety-two (n=92) clinical isolates of P. aeruginosa. All samples were collected from patients at Hamilton Health Sciences hospitals (Hamilton, Ontario, Canada). Isolates, regardless of site of infection, were selected for study if they were resistant to three or more antibiotics. The isolates were cultured on plates and subsequently tested for antimicrobial susceptibility. Initial culture and antibiotic susceptibility testing were performed by Hamilton General Hospital General Microbiology Laboratory using a VITEK 2 Automated System and its Advanced Expert System (bioMerieux) and were compliant with Clinical & Laboratory Standards Institute (CLSI) antibiotic susceptibility testing formulations. Both quantitative minimum inhibitory concentration (MIC) and CLSI breakpoints were reported for each antibiotic. Additionally, a total of 7 conjunctival-sourced ocular isolates of Streptococcus pneumoniae collected by the International Health Management Associates (IHMA) from various locations in the United States were used in the study.
(§2) Antimicrobial sensitivity of the pathogenic strains was determined in compliance with the CLSI protocol. Mueller-Hinton agar plates were used to streak out bacterial species and the direct colony suspension method for inoculum preparation was used to make a suspension of the organism in saline to the density of a McFarland 0.5 turbidity standard. Cation-adjusted Mueller-Hinton broth (CA-MHB) manufactured according to ISO technical standard was used for susceptibility testing in standard 96-well microdilution plates. All antibiotics were purchased as powders from Sigma-Aldrich Canada Co. (Oakville, Canada) and dissolved in appropriate solvent to provide stock solutions as instructed by the manufacturer. Desired test antibiotic solutions were diluted in solvent at a highest test concentration resulting in 256 μg/mL. Where sodium bicarbonate was used, aqueous sterile-filtered sodium bicarbonate solution (7.5% stock) from Sigma-Aldrich Canada Co. (Oakville, Canada) was diluted to the desired concentration in CAMHB. Plates were incubated for 18 hours at 37° C. and read at 600 nm on a Tecan, infinite M1000 PRO plate reader. In accordance with CLSI, methods with appropriate medium supplements for fastidious streptococci (2.5% lysed horse blood, Innovative Research, Inc., Novi, Mich.) were used. […] All MICs in the study were conducted in duplicate.

[2] = test system: MRSA; assay: Time kill curve; format: cell-based, Staphylococcus aureus; settings: 256 μg/mL azithromycin, 50 mM bicarbonate, 4 hours
Description: Experiments to measure the effect of bicarbonate on bactericidal activity of azithromycin were completed according to a Clinical & Laboratory Standards Institute (CLSI) protocol. Briefly, the various treatments were added to logarithmic-phase culture of MRSA in CA-MHB at the concentrations indicated in FIG. 39 and incubated at 37° C. At time points indicated in FIG. 39, cell suspensions were 10-fold serially diluted using sterile PBS buffer and spread on plates of MHB agar. Bacterial colonies were counted after cultivation at 37° C. for 24 hours.

[3] = test system: S. pneumoniae; assay: Susceptibility testing of conjunctival isolates of S. pneumoniae; format: cell-based; settings: Streptococcus pneumoniae, bicarbonate as in label
Description: as §1
Antimicrobial sensitivity of the pathogenic strains was determined in compliance with the CLSI protocol. […] Plates were incubated for 18 hours at 37° C. and read at 600 nm on a Tecan, infinite M1000 PRO plate reader. […]

[4] = test system: P. aeruginosa CA1216; assay: Mouse model of skin infection, neutropenic Balb/c mice; format: in vivo, Pseudomonas aeruginosa; settings: topical 200 μg/mL azithromycin with 40 mM sodium bicarbonate, 25 hours post-infection
Description: The effect of bicarbonate on antimicrobial activity of azithromycin against P. aeruginosa was tested in a mouse model of skin infection. Balb/c mice (6-8 weeks old, female) were rendered neutropenic. Mice were treated with cyclophosphamide on day −4 (150 mg/kg) and day −1 (100 mg/kg). The following compositions were prepared: (1) Vehicle: 5 mg/mL MC, 1% DMSO; […] A 10 mg/mL methylcellulose (MC) solution was made from methylcellulose 4000 cp. 100 mL of sterile water was heated in a microwave for 30 seconds prior to adding to MC to improve solubility. The composition was shaken on a vortex for ˜20 min to completely dissolve. The compositions for mouse treatments were prepared as follows: (1) Vehicle: 980 μL sterile water, 20 μL, DMSO, 1 mL MC (10 mg/mL); […] Each composition was vortexed after preparation. […] The inoculum was diluted and plated on LB to quantify colony-forming units (CFU). The mice were weighed. Buprenorphine IP (0.025 mg/kg) was administered as an analgesic. To anaesthetize the mice, isoflurane (gaseous anesthetic) was administered. […] The fur was stripped from the back of the neck using autoclave tape. An area of ˜2 cm^2 was tape stripped by applying and removing the tape 25-30 times. […] Mice were placed into a recovery cage and monitored until the righting reflex returned. Mice were singly housed and monitored after infection. […]

[5] = test system: macrolide-resistant strain of MRSA; assay: Cellular accumulation of azithromycin by LC-MS/MS; format: cell-based, Staphylococcus aureus; settings: azithromycin 512 μg/mL, 10 minutes contact
Description: A method to measure azithromycin accumulation into a macrolide-resistant strain of MRSA was adapted from a protocol described in Richter et al., Nature 545, pp. 299-304 (2017). Liquid chromatography with tandem mass spectroscopy (LC-MS/MS) was used to quantify accumulation of azithromycin in the absence or presence of 50 mM sodium bicarbonate. Azithromycin was used at 512 μg/mL (because the strain is macrolide-resistant). The azithromycin (in the absence or presence of bicarbonate) was in contact with the MRSA for 10 minutes.

[6] = test system: P. aeruginosa; assay: Checkerboard azithromycin and sodium bicarbonate against P. aeruginosa; format: cell-based, Pseudomonas aeruginosa
Description: (§3) Standard checkerboard broth microdilution assays were set-up in 96-well microtiter plates with serially diluted 8 (or 10) concentrations of each drug (or bicarbonate), using the conditions based on CLSI guidelines, as noted above. All checkerboards were conducted in duplicate.
(§4) To assess the dose-dependence of the interaction of azithromycin and bicarbonate, standard microbroth checkerboard techniques in MRSA and P. aeruginosa were used. For both pathogens, enhancement of the activity of azithromycin was further pronounced with increasing concentrations of sodium bicarbonate, as shown in FIG. 34A and FIG. 34B, respectively. This is consistent in various different isolates of the pathogens. Evident within these checkerboards is the inherent resistance of MRSA and P. aeruginosa to azithromycin in the absence of bicarbonate, where >64 μg/mL of azithromycin was required to inhibit growth to less than 10% growth.

[7] = test system: MRSA; assay: Checkerboard azithromycin and sodium bicarbonate against MRSA; format: cell-based, Staphylococcus aureus
Description: as §3, §4

[8] = test system: P. aeruginosa; assay: Susceptibility testing of P. aeruginosa clinical isolates (n=92); format: cell-based, Pseudomonas aeruginosa; settings: Pseudomonas aeruginosa, P. aeruginosa, n = 92 isolates, bicarbonate as in label
Description: as §1, §2

[9] = test system: Acinetobacter baumannii; assay: MIC determination against Acinetobacter baumannii; format: cell-based; settings: Acinetobacter baumannii
Description: (§5) In the following experiments, bacterial cells were cultured in 96-well microtiter plates in cation-adjusted Mueller-Hinton Broth (MHB) for 18 h at 37° C. The main strains used were E. coli (K-12 BW25113) (placed in stationary incubator) and S. aureus (Newman Strain) (incubated at 250 r.p.m). Knockout strains (ΔtolcC and ΔychM) were used from the Keio knockout collection (Baba et al., Construction of Escherichia coli K-12 in-frame, single-gene knockout mutants: the Keio collection. Mol Syst Biol 2, 2006 0008, doi:10.1038/msb4100050 (2006)). For MIC determination and checkerboard analyses, Clinical & Laboratory Standards Institute (CLSI) protocol was used. […] DiSC3 loading of S. aureus cells was performed as previously described (Farha et al., Collapsing the proton motive force to identify synergistic combinations against Staphylococcus aureus. Chemistry & biology 20, 1168-1178, doi:10.1016/j.chembiol.2013.07.006 (2013)). CCCP concentration of 20 μM was used. pH adjustments were made by addition of HCl or NaOH. INT assay and ATP bioluminescence assays were performed as previously described (Farha et al., Collapsing the proton motive force to identify synergistic combinations against Staphylococcus aureus. Chemistry & biology 20, 1168-1178, doi:10.1016/j.chembiol.2013.07.006 (2013)). For chemical-genomic studies, the Keio library was grown overnight in cation-adjusted MHB broth, in 384-well plates. From these, treatment plates (25 mM sodium bicarbonate, or a sterile water control) were inoculated and grown for 15 hours at 37° C., in a stationary incubator. Data was normalized according to Mangat et al (Mangat et al., Rank ordering plate data facilitates data visualization and normalization in high-throughput screening. J Biomol Screen 19, 1314-1320, doi:10.1177/1087057114534298 (2014)), with gene products and GO terms mined from EcoCyc. The GFP promoter library (Keseler et al., EcoCyc: fusing model organism databases with systems biology. Nucleic Acids Res 41, D605-612, doi:10.1093/nar/gks1027 (2013)) was grown for 18 hours at ambient temperature with the same inoculation strategy as with the Keio collection. The analysis pipeline of Zaslaver et al (Zaslaver et al., A comprehensive library of fluorescent transcriptional reporters for Escherichia coli. Nat Methods 3, 623-628, doi:10.1038/nmeth895 (2006)) was used to generate maps of promoter activity, from which lists of promoters with increased or decreased activity were compiled.

[10] = test system: S. aureus; settings: 25 mM sodium bicarbonate, BCECF-AM
Description: S. aureus cells were loaded with the pH sensitive dye BCECF-AM and were washed and resuspended in PBS. Following baseline readings, PBS (grey circles) or 25 mM sodium bicarbonate (black circles) were added at the arrow and fluorescence measured over time. A standard curve for intracellular pH calibration was used to calculate intracellular pH.

[11] = test system: S. aureus; assay: FIC index of pentamidine combined with various salts (checkerboard); format: cell-based, Staphylococcus aureus; settings: combination of pentamidine isethionate with each salt; FICI≤0.5 synergy, 1-2 additivity, >4 antagonism
Description: as §5

[12] = test system: S. aureus; settings: S. aureus grown with 25 mM sodium bicarbonate vs untreated
Description: as §5

[13] = test system: E. coli; settings: 25 mM sodium bicarbonate
Description: as §5

[14] = test system: Enterococcus faecium
Description: as §5

[15] = test system: E. coli; assay: microbe, parasite or virus in culture; format: cell-based, Escherichia coli
[16] = test system: Pseudomonas aeruginosa; assay: MIC determination against Pseudomonas aeruginosa; format: cell-based
Description: as §5, with “The GFP promoter library (Keseler et al., EcoCyc: fusing model organism databases with systems biology. Nucleic Acids Res 41, D605-612, doi:10.1093/nar/gks1027 (2013)) was grown for 18 hours at ambient temperature with the same inoculation strategy as with the Keio collection. The analysis pipeline of Zaslaver et al (Zaslaver et al., A comprehensive library of fluorescent transcriptional reporters for Escherichia coli. Nat Methods 3, 623-628, doi:10.1038/nmeth895 (2006)) was used to generate maps of promoter activity, from which lists of promoters with increased or decreased activity were compiled.” left out

[17] = test system: S. aureus; assay: microbe, parasite or virus in culture; settings: Staphylococcus aureus
[18] = test system: Klebsiella pneumoniae; assay: MIC determination against Klebsiella pneumoniae; format: cell-based
Description: as §5, with “The GFP promoter library (Keseler et al., EcoCyc: fusing model organism databases with systems biology. Nucleic Acids Res 41, D605-612, doi:10.1093/nar/gks1027 (2013)) was grown for 18 hours at ambient temperature with the same inoculation strategy as with the Keio collection. The analysis pipeline of Zaslaver et al (Zaslaver et al., A comprehensive library of fluorescent transcriptional reporters for Escherichia coli. Nat Methods 3, 623-628, doi:10.1038/nmeth895 (2006)) was used to generate maps of promoter activity, from which lists of promoters with increased or decreased activity were compiled.” left out

[19] = MRSA isolates, in the presence of 50 mM bicarbonate
[20] = n = 100 isolates, bicarbonate as in label
[21] = increasing concentrations of sodium bicarbonate

MIC50 [1, 19]: 1 µg/mL | MIC90 [1, 19]: 2 µg/mL | MIC50 [1, 20]: 128 µg/mL (≈ 171 µM) | MIC90 [1, 20]: > 256 µg/mL | MIC ([1]; n = 100 isolates, bicarbonate as in label, read-out: Maximum MIC obtained): > 256 µg/mL | MIC ([1]; n = 100 isolates, bicarbonate as in label, read-out: Minimum MIC obtained): 1 µg/mL (≈ 1.34 µM) | MIC ([3]; macrolide-resistant S. pneumoniae strain, read-out: MIC, #1186268 (R)): 32 µg/mL (≈ 42.7 µM) | MIC ([3]; macrolide-susceptible S. pneumoniae strain, read-out: MIC, #1173373 (S)): 0.25 µg/mL (≈ 0.334 µM) | MIC50 [8]: 64 µg/mL (≈ 85.4 µM) | MIC90 [8]: 256 µg/mL (≈ 342 µM) | MIC ([8]; read-out: Maximum MIC obtained): > 256 µg/mL | MIC ([8]; read-out: Minimum MIC obtained): 0.5 µg/mL (≈ 0.668 µM)
Structure (SMILES): CC[C@H]1OC(=O)[C@H](C)[C@@H](O[C@H]2C[C@@](C)(OC)[C@@H](O)[C@H](C)O2)[C@H](C)[C@@H](O[C@@H]2O[C@H](C)C[C@H](N(C)C)[C@H]2O)[C@](C)(O)C[C@@H](C)CN(C)[C@H](C)[C@@H](O)[C@]1(C)O [Azithromycin]
eradication rate ([1]; MRSA isolates, 50 mM bicarbonate added): 90% | eradication rate ([1]; MRSA isolates, without bicarbonate): 7% | bactericidal action in the presence vs absence of bicarbonate [2]: superior bactericidal action | effect of bicarbonate on antimicrobial activity in vivo (CFU) [4]: enhanced | increase in accumulation in the presence of 50 mM bicarbonate [5]: approximately 2.5 fold | concentration required to inhibit growth to less than 10% growth ([6]; in the absence of bicarbonate): > 64 µg/mL | dose-dependence of the interaction with sodium bicarbonate [6, 21]: enhancement | concentration required to inhibit growth to less than 10% growth ([7]; in the absence of bicarbonate): > 64 µg/mL | dose-dependence of the interaction with sodium bicarbonate [7, 21]: enhancement

MIC [9]: 50 mM | MIC [14]: 50 to 100 mM | MIC of dirithromycin in the presence of the salt ([15]; E. coli, salt at 25 mM, pH adjusted to 7.4): 4 µg/mL | MIC ([15]; Escherichia coli): 100 mM | MIC [16]: >100 mM | MIC [17]: 50 to 100 mM | MIC [18]: 100 mM
Structure (SMILES): O=C([O-])O.[Na+] [Sodium bicarbonate]
change in cytoplasmic pH [10]: rapid cytoplasmic alkalinization | FIC Index (with pentamidine in S. aureus) [11]: 0.31 | uptake of DiSC3(5) [12]: increased uptake | reduction of intracellular ATP levels compared to untreated control [13]: ~30% | reduction of cellular respiration ([13]; INT to INT-formazan, 60 min): 70%
